Experimental data as given in US20250339408A1, “TREATMENT AND PREVENTION OF BASAL CELL CARCINOMA WITH TOPICAL COMPOSITION COMPRISING PATIDEGIB” (Sol-Gel Technologies Ltd., priority 2023, published 2025).

Key:
[1] = tested on: basal cell carcinoma (BCC) lesions on the face; assay: Randomized, double-blind, vehicle-controlled study of Patidegib Topical Gel, 2% in Gorlin syndrome participants, ITT, all types of subjects (Example 3); type: in vivo, human; settings: PTCH1 mutation not required, gel 2% twice daily to face
Source text: (§1) A randomized, double-blind, stratified, vehicle-controlled study was done, measuring the efficacy and safety of Patidegib Topical Gel, 2%, applied topically twice daily to the face of adult participants with Gorlin syndrome. The Participants were required to apply the investigational product for 12 months. The primary endpoint is a comparison between the two treatment arms of the number of new BCCs that develop over the 12 month period.
Participants will be randomized to receive Patidegib Topical Gel, 2%. The Patidegib Topical Gel, 2% will be dispensed to participants at each study visit and applied topically twice daily to the face.
Participants will be randomized to receive Vehicle. The Patidegib Topical Gel, Vehicle will be dispensed to participants at each study visit and applied topically twice daily to the face.
• 1. The participant must be age at least 18 years of age at the Screening Visit. • 2. The participant must provide written informed consent prior to any study procedures. • 3. The participant must meet diagnostic criteria for the basal cell nevus (Gorlin) syndrome including major criterion #3a plus 1 additional major criterion or plus 2 additional minor criteria listed below.
• a. >2 histologically confirmed BCCs or 1 for participant under age 20. • b. Odontogenic keratocysts of the jaw confirmed histologically. • c. ≥3 palmar and/or plantar pits seen at the Screening Visit. • d. Bilamellar calcification of the falx cerebri present at less than 20 years of age. • e. Fused, bifid, or markedly splayed ribs. • f. First degree relative with Gorlin syndrome. • g. Patched protein 1 (PTCH1) mutation predicted to be of functional significance in normal tissue.
• h. Macrocephaly. • i. Congenital malformations including frontal bossing, cleft lip or palate, “coarse face”, moderate to severe hypertelorism. • j. Skeletal abnormalities detectable clinically: Sprengel deformity, marked pectus deformity, or marked finger syndactyly. • k. Skeletal abnormalities detectable radiographically: bridging of the sella turcica; vertebral abnormalities such as hemivertebrae, fusion or elongation of the vertebral bodies; modeling defects of the hands and feet; flame shaped lucencies of the hands or feet. • l. Ovarian fibroma. • m. Medulloblastoma (Modification of criteria of V Kimonis et al Am J Med Genet 69: 299-308, 1997). • 4. The participant must have 10 (with at least 3 on the face) clinically typical BCCs present within 24 months prior to Randomization (Baseline/Day 1). Additionally, the subject must have at least 2 BCCs with longest diameter <5 mm present on the face prior to Randomization (Baseline/Day 1). • 5. […] The participant is willing for all facial BCCs to be evaluated and treatment recommendations made only by the Investigator. • 10. […]

[2] = tested on: basal cell carcinoma (BCC) lesions on the face; assay: Post hoc analysis of the Example 3 trial: Gorlin patients without PTCH1 mutation (Example 4); type: in vivo, human; settings: for Number of qualifying nSEBs, observed, Mean / Number of new BCCs excluding no longer suspicious BCCs, observed, Mean: Gorlin syndrome without PTCH1 mutation, gel 2% twice daily to face; for Number of qualifying nSEBs, observed, Mean: baseline total BCC lesions at least 10; for Number of new BCCs excluding no longer suspicious BCCs, observed, Mean: baseline total facial BCC lesions at least 10
Method: as §1
A post hoc analysis was performed on the results of the clinical trial of Example 3 to analyze the impact of Patidegib on patients without PTCH1 mutation.

Compound: CC1=C2C[C@H]3[C@@H](CC[C@@H]4C[C@H](NS(C)(=O)=O)CC[C@@]43C)[C@@H]2CC[C@@]2(C1)O[C@@H]1C[C@H](C)CN[C@H]1[C@H]2C [Patidegib]
- Proportion of SEBs clinically resolved, observed, Mean ([1]; month 3): 7.72
- Proportion of SEBs clinically resolved, observed, Mean ([1]; month 6): 6.91
- Proportion of SEBs clinically resolved, observed, Mean ([1]; month 9): 9.13
- Proportion of SEBs clinically resolved, observed, Mean ([1]; month 12): 15.03
- Overall efficacy (in words) ([2]; Gorlin syndrome subjects who lacked the PTCH1 mutation (Examples 3 and 4)): produced no effect
- Number of qualifying nSEBs, observed, Mean ([2]; month 3): 0.25
- Number of qualifying nSEBs, observed, Mean ([2]; month 6): 0.92
- Number of qualifying nSEBs, observed, Mean ([2]; month 9): 1.38
- Number of qualifying nSEBs, observed, Mean ([2]; month 12): 2.50
- Number of new BCCs excluding no longer suspicious BCCs, observed, Mean ([2]; month 3): 1.00
- Number of new BCCs excluding no longer suspicious BCCs, observed, Mean ([2]; month 6): 2.92
- Number of new BCCs excluding no longer suspicious BCCs, observed, Mean ([2]; month 9): 4.75
- Number of new BCCs excluding no longer suspicious BCCs, observed, Mean ([2]; month 12): 6.67
